Measured values taken from US10920506B2, “Methods for wellbore milling operations” (STEP ENERGY SERVICES LTD., priority 2018, dated 2021).

Key:
[1] = IBDU dissolution time with citric acid accelerator (Accelerator HT); assay type: physicochemical; details: 2 bag pill, 45 kg/m3 IBDU in water or brine
Text: (§1) Operations: • When milling in an underpressured well (i.e. hydrostatic pressure is greater than bottom hole pressure), or when there are indications of possible or actual lost circulation. • Add two bags of 100 Mesh IBDU such as STEPvert LT™ available from STEP Energy Services Ltd. to fluid in a displacement tank (45 kg/m^3), engage agitation paddle to maximum RPM (if paddle is not spinning fast enough to mix fluid, increase paddle speed) to ensure mixing. Continue mixing or, as noted above, displace while IBDU is added. • To avoid the IBDU settling out prior to arriving downhole, adjust the fluid if necessary to increase the carrying capacity of the fluid such that solid IBDU is able to remain suspended for the period of time it takes to get downhole. This may be achieved by pump rate and/or addition of viscosifiers. Thus, to better suspend solids: • A gelling agent is added: For example liquid gel hydroxyethyl cellulose 5 L/m^3 (2 kg/m^3 if dry gel) is added to the displacement tank with a target hydration time of 3 minutes; and/or • Slowly pour IBDU into the mixing tub while displacing to ensure no product settles out. • Add a degradation accelerator if needed. Consider Table 1 where IBDU solubility is summarized with and without a citric acid accelerator based on 45 kg/m3 loading of IBDU in water or brine:
• Generally if the formation temperature is less than 90° C., use a degradation accelerator, such as a resin coated citric acid such as Accelerator HT™ available from STEP Energy Services Ltd. The citric acid reduces pH in order to reduce degradation time of the IBDU. The resin coating ensures that the citric acid substantially will not begin to act until it reaches formation temperature. The resin breaks down to expose the acid and the acid then reduces pH and expedites degradation. • The pill of the IBDU, possibly including degradation accelerator, is launched. If a twin pump is employed, pump only through one fluid end and isolate the idle side. This ensures diverter only enters one side of plumbing. This is an operational efficiency, where only one fluid end is exposed to diverter in case it collects in large quantities and holds a valve and seat open. By always keeping one side “clean” (no solids) operational risks are mitigated. • Maintain a minimum rate of at least about 0.2 m^3/min or possibly about 0.4 m^3/min through the single fluid end (higher rate is better to aid in carrying solids). If fluid is comingled with gas such as nitrogen, lower rates may be used. […] This ensures the fluid end has been properly flushed. • Track volume from when pill enters the coil to when it is expected to reach open formation. Record the time that each pill reaches formation/exits coil BHA on treatment report (include surface iron in volume calculation). In case a large pressure event occurs when the pill exits the downhole pump, only one pill is to be inside coil at any given time.

[2] = IBDU solubility without accelerator, 2 bag STEPvert LT diversion pill in water or brine; assay type: physicochemical; details: 45 kg/m3 loading of IBDU in water or brine
Text: as §1, with “brine: […]” for “brine:”

[3] = 50° C., Accelerator HT Loading 5 kg
[4] = 60° C., Accelerator HT Loading 4 kg
[5] = 70° C., Accelerator HT Loading 2 kg
[6] = 80° C., Accelerator HT Loading 1 kg
[7] = 90° C., Accelerator HT Loading 0 kg

- 50% Dissolution Time [1, 3]: 1.5 days
- 100% Dissolution Time [1, 3]: 5 days
- 50% Dissolution Time [1, 4]: 1 days
- 100% Dissolution Time [1, 4]: 3 days
- 50% Dissolution Time [1, 5]: 1 days
- 100% Dissolution Time [1, 5]: 2 days
- 50% Dissolution Time [1, 6]: 1 days
- 100% Dissolution Time [1, 6]: 2 days
- 50% Dissolution Time [1, 7]: 0.33 days
- 100% Dissolution Time [1, 7]: 1 days
- No Accelerator Solubility, % 24 Hours ([2]; 50° C.): 14%
- No Accelerator Solubility, % 48 Hours ([2]; 50° C.): 20%
- No Accelerator Solubility, % 96 Hours ([2]; 50° C.): 32%
- No Accelerator Solubility, % 24 Hours ([2]; 60° C.): 18%
- No Accelerator Solubility, % 48 Hours ([2]; 60° C.): 24%
- No Accelerator Solubility, % 96 Hours ([2]; 60° C.): 35%
- No Accelerator Solubility, % 24 Hours ([2]; 70° C.): 32%
- No Accelerator Solubility, % 48 Hours ([2]; 70° C.): 35%
- No Accelerator Solubility, % 96 Hours ([2]; 70° C.): 51%
- No Accelerator Solubility, % 24 Hours ([2]; 80° C.): 51%
- No Accelerator Solubility, % 48 Hours ([2]; 80° C.): 96%
- No Accelerator Solubility, % 96 Hours ([2]; 80° C.): 98%
- No Accelerator Solubility, % 24 Hours ([2]; 90° C.): 89%
- No Accelerator Solubility, % 48 Hours ([2]; 90° C.): 96%
- No Accelerator Solubility, % 96 Hours ([2]; 90° C.): 98%
Compound: CC(C)C(NC(N)=O)NC(N)=O [STEPvert LT, isobutylidene diurea]
